molecular target: T1, Aromatase (Homo sapiens, UniProt P11511); assay: Competitive inhibition of human aromatase extracted from placental microsomes after 10 mins in presence of [1beta-3H]androstenedione; settings: not given
T1 sequence (P11511 whole entry): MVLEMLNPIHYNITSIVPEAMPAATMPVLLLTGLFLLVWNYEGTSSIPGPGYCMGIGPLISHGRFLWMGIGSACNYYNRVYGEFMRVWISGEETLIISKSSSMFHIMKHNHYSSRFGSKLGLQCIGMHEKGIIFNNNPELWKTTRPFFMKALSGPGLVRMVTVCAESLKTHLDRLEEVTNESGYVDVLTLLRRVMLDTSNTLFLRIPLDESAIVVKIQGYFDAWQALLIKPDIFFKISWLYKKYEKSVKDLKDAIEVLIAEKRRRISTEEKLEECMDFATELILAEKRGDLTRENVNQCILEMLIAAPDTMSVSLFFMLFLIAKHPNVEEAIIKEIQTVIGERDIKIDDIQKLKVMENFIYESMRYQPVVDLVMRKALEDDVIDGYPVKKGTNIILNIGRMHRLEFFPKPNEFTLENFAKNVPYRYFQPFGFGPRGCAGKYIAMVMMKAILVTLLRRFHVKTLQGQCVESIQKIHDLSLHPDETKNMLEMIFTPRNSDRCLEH

Row | Compound | Ki
1 | C[C@H]1C[C@@H]2[C@H](CC[C@]3(C)C(=O)CC[C@@H]23)[C@@]2(C)CCC(=O)C=C12 | 1.4 nM
2 | C[C@]12CCC(=O)C=C1[C@@H](Cc1ccccc1)C[C@@H]1[C@@H]2CC[C@]2(C)C(=O)CC[C@@H]12 | 10 nM
3 | C/C=C1\C[C@@H]2[C@H](CC[C@]3(C)C(=O)CC[C@@H]23)[C@@]2(C)CCC(=O)C=C12 | 4.9 nM
4 | CCCC[C@H]1C[C@@H]2[C@H](CC[C@]3(C)C(=O)CC[C@@H]23)[C@@]2(C)CCC(=O)C=C12 | 1.4 nM
5 | C[C@@H]1C[C@@H]2[C@H](CC[C@]3(C)C(=O)CC[C@@H]23)[C@@]2(C)CCC(=O)C=C12 | 1.4 nM
6 | C#CC[C@@H]1C[C@@H]2[C@H](CC[C@]3(C)C(=O)CC[C@@H]23)[C@@]2(C)CCC(=O)C=C12 | 10 nM
7 | CC[C@@H]1C[C@@H]2[C@H](CC[C@]3(C)C(=O)CC[C@@H]23)[C@@]2(C)CCC(=O)C=C12 | 1.4 nM
8 | C#CC[C@H]1C[C@@H]2[C@H](CC[C@]3(C)C(=O)CC[C@@H]23)[C@@]2(C)CCC(=O)C=C12 | 37 nM
9 | CCCC[C@@H]1C[C@@H]2[C@H](CC[C@]3(C)C(=O)CC[C@@H]23)[C@@]2(C)CCC(=O)C=C12 | 1.4 nM
10 | C=C[C@@H]1C[C@@H]2[C@H](CC[C@]3(C)C(=O)CC[C@@H]23)[C@@]2(C)CCC(=O)C=C12 | 5.1 nM

molecular target: T1, Aromatase; settings: not given

Row | Compound | Ki
11 | C[C@]12CC[C@H]3[C@@H](CCC4=CC(=O)C=C[C@@]43C)[C@@H]1CC[C@@H]2O | 260 nM
12 | C[C@]12C=CC(=O)C=C1CC[C@@H]1[C@@H]2CC[C@]2(C)C(=O)OC[C@@H]12 | 260 nM
13 | C[C@]12CC[C@H]3[C@@H](CCC4=CC(=O)CC[C@@]43[C@@H]3CS3)[C@@H]1CCC2=O | 2 nM
14 | C[C@@]12CCC[C@H]1[C@@H]1CCC3=CC(=O)C=C[C@]3(C)[C@H]1CC2 | 260 nM

molecular target: T1, Aromatase; assay: Inhibition of human aromatase after 30 mins by fluorescence assay; settings: not given

Row | Compound | IC50
15 | C[C@]12C=CC(=O)C=C1CC[C@@H]1[C@@H]2CC[C@]2(C)C3=NN(c4ccccc4)[C@H](c4ccccc4)[C@H]3C[C@@H]12 | 1820 nM
16 | COc1ccc([C@@H]2[C@H]3C[C@H]4[C@@H]5CCC6=CC(=O)C=C[C@]6(C)[C@H]5CC[C@]4(C)C3=NN2C)cc1 | 1820 nM
17 | CN1N=C2[C@H](C[C@H]3[C@@H]4CCC5=CC(=O)C=C[C@]5(C)[C@H]4CC[C@]23C)[C@H]1c1ccccc1 | 1820 nM
18 | COc1ccc([C@@H]2[C@H]3C[C@H]4[C@@H]5CCC6=CC(=O)C=C[C@]6(C)[C@H]5CC[C@]4(C)C3=NN2c2ccccc2)cc1 | 1820 nM

molecular target: T1, Aromatase; assay: Inhibition of human aromatase extracted from placental microsomes using [1,2-3H]androstenedione as substrate after 30 mins by scintillation counting analysis; settings: not given

Row | Compound | IC50
19 | C[C@]12CCC(=O)C(Sc3ccccc3)=C1CC[C@@H]1[C@@H]2CC[C@]2(C)C(=O)CC[C@@H]12 | 190 nM
20 | C[C@]12CCC(=O)C(Oc3ccccc3)=C1CC[C@@H]1[C@@H]2CC[C@]2(C)C(=O)CC[C@@H]12 | 530 nM
21 | C[C@]12CCC(=O)C(Oc3ccccc3)=C1C[C@@H](Sc1ccccc1)[C@@H]1[C@@H]2CC[C@]2(C)C(=O)CC[C@@H]12 | 1650 nM

molecular target: T1, Aromatase; assay: Inhibition of human aromatase extracted from placental microsomes using [1beta-3H]androstenedione as substrate after 20 mins by radiometric assay; settings: not given

Row | Compound | IC50
22 | CC1=C[C@@]2(C)C(=CC1=O)CC[C@@H]1[C@@H]2CC[C@]2(C)C(=O)CC[C@@H]12 | 580 nM
23 | C[C@]12C=C(CCCc3ccccc3)C(=O)C=C1CC[C@@H]1[C@@H]2CC[C@]2(C)C(=O)CC[C@@H]12 | 140 nM
24 | C[C@]12CCCC=C1C(=O)C[C@@H]1[C@@H]2CC[C@]2(C)C(=O)CC[C@@H]12 | 1700 nM
25 | CC1=C[C@@]2(C)C(=CC1=O)[C@@H](Br)C[C@@H]1[C@@H]2CC[C@]2(C)C(=O)CC[C@@H]12 | 710 nM
26 | C[C@]12CC[C@H](OC=O)C=C1C(=O)C[C@@H]1[C@@H]2CC[C@]2(C)C(=O)CC[C@@H]12 | 1700 nM
27 | CC(=O)O[C@@H]1C=C2C(=O)C[C@@H]3[C@H](CC[C@]4(C)C(=O)CC[C@@H]34)[C@@]2(C)CC1 | 1700 nM

molecular target: T1, Aromatase; assay: Competitive inhibition of human aromatase extracted from placental microsomes by double reciprocal plot analysis in presence of 4-androstene-3,17-dione; settings: read-out: Ki(app)

Row | Compound | Ki
28 | C[C@]12C=CC(=O)C=C1C[C@@H](Sc1ccc3ccccc3c1)[C@@H]1[C@@H]2CC[C@]2(C)C(=O)CC[C@@H]12 | 12 nM
29 | C[C@]12C=CC(=O)C=C1C[C@@H](Sc1cccc3ccccc13)[C@@H]1[C@@H]2CC[C@]2(C)C(=O)CC[C@@H]12 | 12 nM
30 | C[C@]12C=CC(=O)C=C1C[C@@H](Sc1ccc(Br)cc1)[C@@H]1[C@@H]2CC[C@]2(C)C(=O)CC[C@@H]12 | 12 nM

molecular target: T1, Aromatase; assay: Inhibition of human aromatase extracted from placental microsomes using 4-[14C]androstenedione as substrate at 0.25 to 1.25 uM after 15 mins; settings: not given

Row | Compound | INH
31 | CC(=O)NC[C@]12CCC(=O)C=C1CC[C@@H]1[C@@H]2CC[C@]2(C)C(=O)CC[C@@H]12 | < 20%
32 | C[C@]12CC[C@H]3[C@@H](CCC4=CC(=O)CC[C@@]43CNC(=O)C(F)(F)F)[C@@H]1CCC2=O | < 20%
33 | C[C@]12CC[C@H]3[C@@H](CCC4=CC(=O)CC[C@@]43N=C=O)[C@@H]1CCC2=O | < 20%
34 | C[C@]12CC[C@H]3[C@@H](CCC4=CC(=O)CC[C@@]43/C=N/O)[C@@H]1CCC2=O | < 20%
35 | COC(=O)N[C@]12CCC(=O)C=C1CC[C@H]1[C@@H]3CCC(=O)[C@@]3(C)CC[C@@H]12 | < 20%
36 | C[C@]12CC[C@H]3[C@@H](CCC4=CC(=O)CC[C@@]43N)[C@@H]1CCC2=O | < 20%

molecular target: T1, Aromatase; assay: Competitive inhibition of aromatase (unknown origin); settings: not given

Row | Compound | Ki | IC50
37 | C[C@]12CC[C@H]3[C@@H](CCC4=CC(=O)[C@H]5CC[C@]43C5)[C@@H]1CCC2=O | 10000 nM | 
38 | C[C@]12CC[C@H]3[C@@H](CC=C4[C@H]5CSC[C@]43CCC5=O)[C@@H]1CCC2=O | 10000 nM | 
39 | C=CC1OC2(O)CC[C@]13C(=CC[C@@H]1[C@@H]3CC[C@]3(C)C(=O)CC[C@@H]13)C2 (some centres not stated) | 10000 nM | 
40 | CSC[C@]12CCC(=O)C=C1CC[C@@H]1[C@@H]2CC[C@]2(C)C(=O)CC[C@@H]12 | 1 nM | 
41 | C[C@]12CCC3C(C[C@H]4COC[C@@]35CCC(=O)C=C45)C1CCC2=O (some centres not stated) | 10000 nM | 
42 | C[C@]12CC[C@H]3[C@@H](CCC4=CC(=O)CC[C@@]43C(=O)C(F)(F)F)[C@@H]1CCC2=O |  | 26000 nM
43 | C[C@]1(CC#N)CC[C@H]2[C@@H](CCC3=CC(=O)CC[C@@]32C)[C@@H]1CC#N | 10000 nM | 
44 | C[C@]12CC[C@H]3[C@@H](CCC4=CC(=O)CC[C@@]43CN=[N+]=[N-])[C@@H]1CCC2=O | 5 nM | 

molecular target: T1, Aromatase; assay: Competitive inhibition of human aromatase extracted from placental microsomes by Lineweaver- Burk plots analysis in presence of 4-androstene-3,17-dione; settings: not given

Row | Compound | Ki
45 | C[C@]12CCC(=O)C=C1C[C@@H](Sc1ccc3ccccc3c1)[C@@H]1[C@@H]2CC[C@]2(C)C(=O)CC[C@@H]12 | 24.1 nM
46 | CN(C)c1cccc2c(S(=O)(=O)Nc3ccc(S[C@@H]4CC5=CC(=O)CC[C@]5(C)[C@H]5CC[C@]6(C)C(=O)CC[C@H]6[C@H]45)cc3)cccc12 | 24.1 nM
47 | C[C@]12CCC(=O)C=C1C[C@@H](Sc1cccc3ccccc13)[C@@H]1[C@@H]2CC[C@]2(C)C(=O)CC[C@@H]12 | 24.1 nM
48 | C[C@]12CCC(=O)C=C1C[C@@H](Sc1ccc(Nc3ccc([N+](=O)[O-])cc3[N+](=O)[O-])cc1)[C@@H]1[C@@H]2CC[C@]2(C)C(=O)CC[C@@H]12 | 24.1 nM

molecular target: T1, Aromatase; assay: Competitive inhibition of human aromatase extracted from placental microsomes by Dixon plot analysis in presence of [1beta-3H]AD; settings: read-out: Ki

Row | Compound | Ki
49 | C[C@H]1C[C@@]2(C)C(=CC1=O)CC[C@@H]1[C@@H]2CC[C@]2(C)C(=O)CC[C@@H]12 | 22 nM
50 | C[C@@H]1C[C@@]2(C)C(=CC1=O)CC[C@@H]1[C@@H]2CC[C@]2(C)C(=O)CC[C@@H]12 | 55 nM
51 | CCO[C@@H]1C[C@@]2(C)C(=CC1=O)CC[C@@H]1[C@@H]2CC[C@]2(C)C(=O)CC[C@@H]12 | 670 nM
52 | C=C1C[C@@]2(C)C(=CC1=O)CC[C@@H]1[C@@H]2CC[C@]2(C)C(=O)CC[C@@H]12 | 68 nM
53 | CC1(C)C[C@@]2(C)C(=CC1=O)CC[C@@H]1[C@@H]2CC[C@]2(C)C(=O)CC[C@@H]12 | 8.8 nM
54 | C[C@]12C[C@@H](Br)C(=O)C=C1CC[C@@H]1[C@@H]2CC[C@]2(C)C(=O)CC[C@@H]12 | 45 nM

molecular target: T1, Aromatase; assay: Competitive inhibition of human aromatase extracted from placental microsomes after 10 mins by Lineweaver- Burk plots analysis in presence of [1beta-3H]androstenedione; settings: not given

Row | Compound | Ki
55 | C[C@]12C=CC(=O)C(Sc3ccccc3)=C1C=C[C@@H]1[C@@H]2CC[C@]2(C)C(=O)CC[C@@H]12 | 9.8 nM
56 | C[C@]12CCC(=O)C(Sc3ccccc3)=C1C=C[C@@H]1[C@@H]2CC[C@]2(C)C(=O)CC[C@@H]12 | 9.8 nM
57 | C[C@]12C=CC(=O)C(Sc3ccccc3)=C1CC[C@@H]1[C@@H]2CC[C@]2(C)C(=O)CC[C@@H]12 | 9.8 nM

molecular target: T1, Aromatase; assay: Inhibition of human aromatase extracted from placental microsomes using [1beta-3H]AD as substrate by radiometric assay; settings: not given

Row | Compound | IC50
58 | C[C@H]1C[C@@]2(C)C(=CC1=O)CC[C@@H]1[C@@H]2CC[C@]2(C)C(=O)CC[C@@H]12 | 250 nM
59 | C[C@@H]1C[C@@]2(C)C(=CC1=O)CC[C@@H]1[C@@H]2CC[C@]2(C)C(=O)CC[C@@H]12 | 690 nM
60 | C=C1C[C@@]2(C)C(=CC1=O)CC[C@@H]1[C@@H]2CC[C@]2(C)C(=O)CC[C@@H]12 | 550 nM
61 | CC1(C)C[C@@]2(C)C(=CC1=O)CC[C@@H]1[C@@H]2CC[C@]2(C)C(=O)CC[C@@H]12 | 89 nM

molecular target: T1, Aromatase; settings: not given; remark: another data set of the same source

Row | Compound | Ki
62 | CC1=C[C@@]2(C)C(=CC1=O)CC[C@@H]1[C@@H]2CC[C@]2(C)C(=O)CC[C@@H]12 | 46 nM
63 | C[C@]12C=C(CCCc3ccccc3)C(=O)C=C1CC[C@@H]1[C@@H]2CC[C@]2(C)C(=O)CC[C@@H]12 | 16.1 nM
64 | CC1=C[C@@]2(C)C(=CC1=O)[C@@H](Br)C[C@@H]1[C@@H]2CC[C@]2(C)C(=O)CC[C@@H]12 | 81 nM

molecular target: T1, Aromatase; assay: Competitive inhibition of human aromatase extracted from placental microsomes by Dixon plot analysis in presence of [1beta-3H]androstenedione; settings: read-out: Ki

Row | Compound | Ki
65 | C[C@]12CCCC=C1C(=O)C[C@@H]1[C@@H]2CC[C@]2(C)C(=O)CC[C@@H]12 | 610 nM
66 | C[C@]12CC[C@H](OC=O)C=C1C(=O)C[C@@H]1[C@@H]2CC[C@]2(C)C(=O)CC[C@@H]12 | 16000 nM
67 | CC(=O)O[C@@H]1C=C2C(=O)C[C@@H]3[C@H](CC[C@]4(C)C(=O)CC[C@@H]34)[C@@]2(C)CC1 | 5500 nM

Source: ChEMBL document CHEMBL3751755, “Developing steroidal aromatase inhibitors-an effective armament to win the battle against breast cancer” (Eur J Med Chem, 2015)
